One test deals with COLO 205. The experiment in a line: Antiproliferative activity against human COLO205 cells after 48 hrs by XTT assay. Conditions: COLO 205, 48 h. Background: Tetrazolium dyes change colour on reduction, which living cells bring about.
Test [1] concerns Panel NCI-60 (60 carcinoma cell lines). The experiment in a line: Antiproliferative activity against human NCI60 cells at 10 uM after 48 hrs by sulforhodamine B assay relative to control. Format: functional.
Another test concerns KM12. The experiment in a line: Antiproliferative activity against human KM12 cells after 48 hrs by XTT assay. The conditions noted are these: KM12, 48 h.
Test [2] deals with Panel NCI-60 (60 carcinoma cell lines). The experiment in a line: Antiproliferative activity against human NCI60 cells after 48 hrs by sulforhodamine B assay. The class given is functional, cell-based.

pIC50: −log10 of the molar value.

What is called pIC50 is the IC50 on a negative log10 scale, so that one unit is a factor of ten. Low values mean a large IC50, high ones a small IC50. For `CC(/C=C/C=C(\C)[C@H](O)[C@H](C)C(=O)O[C@H]1C[C@H](C)C=C2C=C[C@@]3(C)O[C@@H](O)CC(=O)[C@]3(C)[C@H]21)=C\C=C\C(=O)O`, the pIC50 in the test with COLO 205 and in the test with KM12 was greater than 5.90 throughout. Besides, the Activity in test [1] is recorded as -3%.

For the molecule `C/C(=C\C=C\[C@H](C)CC(=O)O)[C@H](O)[C@H](C)C(=O)O[C@H]1C[C@@H](C)[C@@H](O)c2ccc(C)c(C)c21`, the pIC50 in the test with COLO 205 is 4.90; with KM12, 5.19. In addition, the Activity in test [1] was 89%.

For `CC(=O)CC/C=C(\C)[C@H](O)[C@H](C)C(=O)O[C@H]1C[C@H](C)C=C2C=C[C@@]3(C)O[C@@H](O)CC(=O)[C@]3(C)[C@H]21`, the Activity entry was “Dose-dependent effect” in test [2] and -34% in test [1]. Also, the negative-log IC50 (pIC50) in the test with COLO 205 and in the test with KM12 was greater than 5.90 each time.

Source of the values: ChEMBL document CHEMBL4190229, “Growth Inhibition of Colon Cancer and Melanoma Cells by Versiol Derivatives from a Paraconiothyrium Species” (J Nat Prod, 2017).
